# Measurements reported in the supplement of paper PMC4862054.
# Test system: HCC1937
# Assay: normalised response (% of control), CellTiter-Glo; higher = more viable cells (100 = DMSO, 0 = benzethonium chloride kill control)
# Conditions: incubation time: 72 h
# Description: (§1)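 DSRT, 72 h incubation, CellTox Green / CellTiter-Glo readout. Signal is normalised to DMSO and benzethonium chloride controls. Value is the normalised response at the highest dose.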
row,SMILES,normalised response
1,Cn1cc(CNCC2CCN(c3ncc(C(=O)NO)cn3)CC2)c2ccccc21 [Quisinostat] (1000 nM),22.7%
2,CC[C@@]1(O)C(=O)OCc2c1cc1n(c2=O)Cc2cc3c(CN(C)C)c(O)ccc3nc2-1 [Topotecan] (10000 nM),15.3%

# Test system: HDQ-P1
# Assay: as above
# Conditions: incubation time: 72 h
# Description: as §1
row,SMILES,normalised response
1,Cc1c(Cn2c(C)nc3c(C(=O)O)cc(N4CCOCC4)cc32)cccc1C(F)(F)F (10000 nM),100%
2,CCCCC/C=C/C=C1/C(=O)C=C[C@@H]1C/C=C\CCCC(=O)O [15D-PGJ2] (800 nM),97.1%
3,CC(=O)OC[C@H]1O[C@@H]([S-])[C@H](OC(C)=O)[C@@H](OC(C)=O)[C@@H]1OC(C)=O.CCP(CC)CC.[Au+] [Auranofin] (2500 nM),11.1%
4,CS(=O)(=O)N1CCN(Cc2cc3nc(-c4cccc5[nH]ncc45)nc(N4CCOCC4)c3s2)CC1 [Pictilisib] (10000 nM),19.9%
5,O=C(NC[C@H](O)CO)c1ccncc1Nc1ccc(I)cc1F [Pimasertib] (10000 nM),55.1%
6,c1cc(CN2CCCNCCNCCCNCC2)ccc1CN1CCCNCCNCCCNCC1 [Plerixafor] (10000 nM),98.2%
7,Cn1cc(CNCC2CCN(c3ncc(C(=O)NO)cn3)CC2)c2ccccc21 [Quisinostat] (1000 nM),25.7%
8,CC[C@@]1(O)C(=O)OCc2c1cc1n(c2=O)Cc2cc3c(CN(C)C)c(O)ccc3nc2-1 [Topotecan] (10000 nM),54.5%

# Test system: Hs578T
# Assay: as above
# Conditions: incubation time: 72 h
# Description: as §1
row,SMILES,normalised response
1,Cc1c(Cn2c(C)nc3c(C(=O)O)cc(N4CCOCC4)cc32)cccc1C(F)(F)F (10000 nM),97.6%
2,CCCCC/C=C/C=C1/C(=O)C=C[C@@H]1C/C=C\CCCC(=O)O [15D-PGJ2] (800 nM),102%
3,CC(=O)OC[C@H]1O[C@@H]([S-])[C@H](OC(C)=O)[C@@H](OC(C)=O)[C@@H]1OC(C)=O.CCP(CC)CC.[Au+] [Auranofin] (2500 nM),19.1%
4,CS(=O)(=O)N1CCN(Cc2cc3nc(-c4cccc5[nH]ncc45)nc(N4CCOCC4)c3s2)CC1 [Pictilisib] (10000 nM),31.3%
5,O=C(NC[C@H](O)CO)c1ccncc1Nc1ccc(I)cc1F [Pimasertib] (10000 nM),64.6%
6,c1cc(CN2CCCNCCNCCCNCC2)ccc1CN1CCCNCCNCCCNCC1 [Plerixafor] (10000 nM),92.3%
7,Cn1cc(CNCC2CCN(c3ncc(C(=O)NO)cn3)CC2)c2ccccc21 [Quisinostat] (1000 nM),5.64%
8,CC[C@@]1(O)C(=O)OCc2c1cc1n(c2=O)Cc2cc3c(CN(C)C)c(O)ccc3nc2-1 [Topotecan] (10000 nM),55.2%

# Test system: MCF-10A
# Assay: as above
# Conditions: incubation time: 72 h
# Description: as §1
row,SMILES,normalised response
1,Cc1c(Cn2c(C)nc3c(C(=O)O)cc(N4CCOCC4)cc32)cccc1C(F)(F)F (10000 nM),111%
2,CCCCC/C=C/C=C1/C(=O)C=C[C@@H]1C/C=C\CCCC(=O)O [15D-PGJ2] (800 nM),108%
3,CC(=O)OC[C@H]1O[C@@H]([S-])[C@H](OC(C)=O)[C@@H](OC(C)=O)[C@@H]1OC(C)=O.CCP(CC)CC.[Au+] [Auranofin] (2500 nM),37.9%
4,CS(=O)(=O)N1CCN(Cc2cc3nc(-c4cccc5[nH]ncc45)nc(N4CCOCC4)c3s2)CC1 [Pictilisib] (10000 nM),18.4%
5,O=C(NC[C@H](O)CO)c1ccncc1Nc1ccc(I)cc1F [Pimasertib] (10000 nM),26.6%
6,c1cc(CN2CCCNCCNCCCNCC2)ccc1CN1CCCNCCNCCCNCC1 [Plerixafor] (10000 nM),82.6%
7,Cn1cc(CNCC2CCN(c3ncc(C(=O)NO)cn3)CC2)c2ccccc21 [Quisinostat] (1000 nM),10.7%
8,CC[C@@]1(O)C(=O)OCc2c1cc1n(c2=O)Cc2cc3c(CN(C)C)c(O)ccc3nc2-1 [Topotecan] (10000 nM),39%

# Test system: MDA-MB-231
# Assay: as above
# Conditions: incubation time: 72 h
# Description: as §1
row,SMILES,normalised response
1,Cc1c(Cn2c(C)nc3c(C(=O)O)cc(N4CCOCC4)cc32)cccc1C(F)(F)F (10000 nM),96.1%
2,CCCCC/C=C/C=C1/C(=O)C=C[C@@H]1C/C=C\CCCC(=O)O [15D-PGJ2] (800 nM),97.8%
3,CC(=O)OC[C@H]1O[C@@H]([S-])[C@H](OC(C)=O)[C@@H](OC(C)=O)[C@@H]1OC(C)=O.CCP(CC)CC.[Au+] [Auranofin] (2500 nM),8.02%
4,CS(=O)(=O)N1CCN(Cc2cc3nc(-c4cccc5[nH]ncc45)nc(N4CCOCC4)c3s2)CC1 [Pictilisib] (10000 nM),48.8%
5,O=C(NC[C@H](O)CO)c1ccncc1Nc1ccc(I)cc1F [Pimasertib] (10000 nM),54%
6,c1cc(CN2CCCNCCNCCCNCC2)ccc1CN1CCCNCCNCCCNCC1 [Plerixafor] (10000 nM),94.2%
7,Cn1cc(CNCC2CCN(c3ncc(C(=O)NO)cn3)CC2)c2ccccc21 [Quisinostat] (1000 nM),6.24%
8,CC[C@@]1(O)C(=O)OCc2c1cc1n(c2=O)Cc2cc3c(CN(C)C)c(O)ccc3nc2-1 [Topotecan] (10000 nM),43.1%

# Test system: MDA-MB-436
# Assay: as above
# Conditions: incubation time: 72 h
# Description: as §1
row,SMILES,normalised response
1,Cc1c(Cn2c(C)nc3c(C(=O)O)cc(N4CCOCC4)cc32)cccc1C(F)(F)F (10000 nM),86.2%
2,CCCCC/C=C/C=C1/C(=O)C=C[C@@H]1C/C=C\CCCC(=O)O [15D-PGJ2] (800 nM),97.4%
3,CC(=O)OC[C@H]1O[C@@H]([S-])[C@H](OC(C)=O)[C@@H](OC(C)=O)[C@@H]1OC(C)=O.CCP(CC)CC.[Au+] [Auranofin] (2500 nM),22.4%
4,CS(=O)(=O)N1CCN(Cc2cc3nc(-c4cccc5[nH]ncc45)nc(N4CCOCC4)c3s2)CC1 [Pictilisib] (10000 nM),43%
5,O=C(NC[C@H](O)CO)c1ccncc1Nc1ccc(I)cc1F [Pimasertib] (10000 nM),79.7%
6,c1cc(CN2CCCNCCNCCCNCC2)ccc1CN1CCCNCCNCCCNCC1 [Plerixafor] (10000 nM),97.9%
7,Cn1cc(CNCC2CCN(c3ncc(C(=O)NO)cn3)CC2)c2ccccc21 [Quisinostat] (1000 nM),34.8%
8,CC[C@@]1(O)C(=O)OCc2c1cc1n(c2=O)Cc2cc3c(CN(C)C)c(O)ccc3nc2-1 [Topotecan] (10000 nM),21%

# Test system: MDA-MB-453
# Assay: as above
# Conditions: incubation time: 72 h
# Description: as §1
row,SMILES,normalised response
1,Cc1c(Cn2c(C)nc3c(C(=O)O)cc(N4CCOCC4)cc32)cccc1C(F)(F)F (10000 nM),94.1%
2,CCCCC/C=C/C=C1/C(=O)C=C[C@@H]1C/C=C\CCCC(=O)O [15D-PGJ2] (800 nM),106%
3,CC(=O)OC[C@H]1O[C@@H]([S-])[C@H](OC(C)=O)[C@@H](OC(C)=O)[C@@H]1OC(C)=O.CCP(CC)CC.[Au+] [Auranofin] (2500 nM),1.5%
4,CS(=O)(=O)N1CCN(Cc2cc3nc(-c4cccc5[nH]ncc45)nc(N4CCOCC4)c3s2)CC1 [Pictilisib] (10000 nM),13.4%
5,O=C(NC[C@H](O)CO)c1ccncc1Nc1ccc(I)cc1F [Pimasertib] (10000 nM),89.2%
6,c1cc(CN2CCCNCCNCCCNCC2)ccc1CN1CCCNCCNCCCNCC1 [Plerixafor] (10000 nM),78.3%
7,Cn1cc(CNCC2CCN(c3ncc(C(=O)NO)cn3)CC2)c2ccccc21 [Quisinostat] (1000 nM),2.11%
8,CC[C@@]1(O)C(=O)OCc2c1cc1n(c2=O)Cc2cc3c(CN(C)C)c(O)ccc3nc2-1 [Topotecan] (10000 nM),33.2%

# Test system: MDA-MB-468
# Assay: as above
# Conditions: incubation time: 72 h
# Description: as §1
row,SMILES,normalised response
1,Cc1c(Cn2c(C)nc3c(C(=O)O)cc(N4CCOCC4)cc32)cccc1C(F)(F)F (10000 nM),69.4%
2,CCCCC/C=C/C=C1/C(=O)C=C[C@@H]1C/C=C\CCCC(=O)O [15D-PGJ2] (800 nM),88.7%
3,CC(=O)OC[C@H]1O[C@@H]([S-])[C@H](OC(C)=O)[C@@H](OC(C)=O)[C@@H]1OC(C)=O.CCP(CC)CC.[Au+] [Auranofin] (2500 nM),0.33%
4,CS(=O)(=O)N1CCN(Cc2cc3nc(-c4cccc5[nH]ncc45)nc(N4CCOCC4)c3s2)CC1 [Pictilisib] (10000 nM),26.4%
5,O=C(NC[C@H](O)CO)c1ccncc1Nc1ccc(I)cc1F [Pimasertib] (10000 nM),53.5%
6,c1cc(CN2CCCNCCNCCCNCC2)ccc1CN1CCCNCCNCCCNCC1 [Plerixafor] (10000 nM),106%
7,Cn1cc(CNCC2CCN(c3ncc(C(=O)NO)cn3)CC2)c2ccccc21 [Quisinostat] (1000 nM),10.2%
8,CC[C@@]1(O)C(=O)OCc2c1cc1n(c2=O)Cc2cc3c(CN(C)C)c(O)ccc3nc2-1 [Topotecan] (10000 nM),4.47%

# Test system: MFM-223
# Assay: as above
# Conditions: incubation time: 72 h
# Description: as §1
row,SMILES,normalised response
1,Cc1c(Cn2c(C)nc3c(C(=O)O)cc(N4CCOCC4)cc32)cccc1C(F)(F)F (10000 nM),102%
2,CCCCC/C=C/C=C1/C(=O)C=C[C@@H]1C/C=C\CCCC(=O)O [15D-PGJ2] (800 nM),102%
3,CC(=O)OC[C@H]1O[C@@H]([S-])[C@H](OC(C)=O)[C@@H](OC(C)=O)[C@@H]1OC(C)=O.CCP(CC)CC.[Au+] [Auranofin] (2500 nM),21.9%
4,CS(=O)(=O)N1CCN(Cc2cc3nc(-c4cccc5[nH]ncc45)nc(N4CCOCC4)c3s2)CC1 [Pictilisib] (10000 nM),28.2%
5,O=C(NC[C@H](O)CO)c1ccncc1Nc1ccc(I)cc1F [Pimasertib] (10000 nM),63%
6,c1cc(CN2CCCNCCNCCCNCC2)ccc1CN1CCCNCCNCCCNCC1 [Plerixafor] (10000 nM),87.2%
7,Cn1cc(CNCC2CCN(c3ncc(C(=O)NO)cn3)CC2)c2ccccc21 [Quisinostat] (1000 nM),32.8%
8,CC[C@@]1(O)C(=O)OCc2c1cc1n(c2=O)Cc2cc3c(CN(C)C)c(O)ccc3nc2-1 [Topotecan] (10000 nM),61.7%

# Test system: SK-BR-3
# Assay: as above
# Conditions: incubation time: 72 h
# Description: as §1
row,SMILES,normalised response
1,Cc1c(Cn2c(C)nc3c(C(=O)O)cc(N4CCOCC4)cc32)cccc1C(F)(F)F (10000 nM),98.3%
2,CCCCC/C=C/C=C1/C(=O)C=C[C@@H]1C/C=C\CCCC(=O)O [15D-PGJ2] (800 nM),106%
3,CC(=O)OC[C@H]1O[C@@H]([S-])[C@H](OC(C)=O)[C@@H](OC(C)=O)[C@@H]1OC(C)=O.CCP(CC)CC.[Au+] [Auranofin] (2500 nM),34.3%
4,CS(=O)(=O)N1CCN(Cc2cc3nc(-c4cccc5[nH]ncc45)nc(N4CCOCC4)c3s2)CC1 [Pictilisib] (10000 nM),22.2%
5,O=C(NC[C@H](O)CO)c1ccncc1Nc1ccc(I)cc1F [Pimasertib] (10000 nM),58.6%
6,c1cc(CN2CCCNCCNCCCNCC2)ccc1CN1CCCNCCNCCCNCC1 [Plerixafor] (10000 nM),79.1%
7,Cn1cc(CNCC2CCN(c3ncc(C(=O)NO)cn3)CC2)c2ccccc21 [Quisinostat] (1000 nM),0.06%
8,CC[C@@]1(O)C(=O)OCc2c1cc1n(c2=O)Cc2cc3c(CN(C)C)c(O)ccc3nc2-1 [Topotecan] (10000 nM),19.6%
